Source: paper PMC5540273, “Progress towards a public chemogenomic set for protein kinases and a call for contributions” (PLoS ONE, 2017)

Assays:
Test in all cases: KINOMEscan competition binding
[1] = target: HPK1 (Homo sapiens, UniProt Q92918); settings: read-out: %Inh HPK1
[2] = target: T1, DCAMKL3 (Homo sapiens, UniProt Q9C098); settings: read-out: %Inh DCAMKL3
T1 sequence (Q9C098 1-648): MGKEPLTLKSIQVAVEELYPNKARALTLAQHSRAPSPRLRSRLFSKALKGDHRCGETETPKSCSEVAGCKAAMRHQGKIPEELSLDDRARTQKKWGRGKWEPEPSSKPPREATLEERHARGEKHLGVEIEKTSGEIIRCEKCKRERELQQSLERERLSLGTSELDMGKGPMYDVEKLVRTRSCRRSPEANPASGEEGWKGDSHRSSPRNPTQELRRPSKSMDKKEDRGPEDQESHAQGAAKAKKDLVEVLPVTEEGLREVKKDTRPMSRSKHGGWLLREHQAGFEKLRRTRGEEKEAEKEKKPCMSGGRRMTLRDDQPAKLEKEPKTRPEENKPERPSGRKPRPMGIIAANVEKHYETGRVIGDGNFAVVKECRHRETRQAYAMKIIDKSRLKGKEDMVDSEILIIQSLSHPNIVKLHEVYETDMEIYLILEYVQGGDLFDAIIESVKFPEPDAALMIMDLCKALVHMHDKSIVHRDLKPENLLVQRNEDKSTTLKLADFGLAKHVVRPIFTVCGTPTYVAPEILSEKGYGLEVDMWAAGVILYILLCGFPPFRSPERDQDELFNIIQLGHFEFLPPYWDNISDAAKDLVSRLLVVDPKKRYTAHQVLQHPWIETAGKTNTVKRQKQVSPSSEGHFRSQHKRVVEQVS

[3] = target: T2, LATS2 (Homo sapiens, UniProt Q9NRM7); settings: read-out: %Inh LATS2
T2 sequence (Q9NRM7 1-1088): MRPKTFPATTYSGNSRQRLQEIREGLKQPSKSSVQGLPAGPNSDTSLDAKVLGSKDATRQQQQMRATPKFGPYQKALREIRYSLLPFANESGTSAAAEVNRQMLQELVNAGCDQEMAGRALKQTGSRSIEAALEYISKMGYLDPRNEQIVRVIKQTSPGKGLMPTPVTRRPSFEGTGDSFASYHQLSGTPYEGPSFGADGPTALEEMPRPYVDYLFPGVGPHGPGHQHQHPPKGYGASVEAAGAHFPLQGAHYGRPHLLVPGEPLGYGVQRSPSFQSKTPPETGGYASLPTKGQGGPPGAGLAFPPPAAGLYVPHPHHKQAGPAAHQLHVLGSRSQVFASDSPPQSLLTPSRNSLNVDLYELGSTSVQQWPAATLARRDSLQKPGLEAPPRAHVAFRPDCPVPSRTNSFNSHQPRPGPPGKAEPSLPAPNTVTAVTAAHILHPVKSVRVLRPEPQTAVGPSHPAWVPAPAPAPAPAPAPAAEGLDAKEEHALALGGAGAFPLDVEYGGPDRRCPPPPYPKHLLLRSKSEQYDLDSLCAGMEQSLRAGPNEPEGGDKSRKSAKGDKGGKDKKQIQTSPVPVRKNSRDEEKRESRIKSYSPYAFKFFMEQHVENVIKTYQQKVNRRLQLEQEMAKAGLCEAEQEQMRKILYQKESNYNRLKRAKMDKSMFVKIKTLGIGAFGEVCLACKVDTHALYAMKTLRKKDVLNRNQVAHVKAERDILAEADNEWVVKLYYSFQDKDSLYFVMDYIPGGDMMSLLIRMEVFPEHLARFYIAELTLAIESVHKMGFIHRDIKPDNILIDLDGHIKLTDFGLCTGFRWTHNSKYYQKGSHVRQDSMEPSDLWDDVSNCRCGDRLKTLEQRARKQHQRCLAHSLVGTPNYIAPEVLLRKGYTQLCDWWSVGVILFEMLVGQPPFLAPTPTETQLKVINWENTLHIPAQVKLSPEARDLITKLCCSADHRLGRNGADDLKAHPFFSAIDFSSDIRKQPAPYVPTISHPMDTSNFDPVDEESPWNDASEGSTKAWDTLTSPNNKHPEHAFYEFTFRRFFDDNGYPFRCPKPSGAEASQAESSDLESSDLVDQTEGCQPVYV

[4] = target: T3, BMX (Homo sapiens, UniProt P51813); settings: read-out: %Inh BMX
T3 sequence (P51813 1-675): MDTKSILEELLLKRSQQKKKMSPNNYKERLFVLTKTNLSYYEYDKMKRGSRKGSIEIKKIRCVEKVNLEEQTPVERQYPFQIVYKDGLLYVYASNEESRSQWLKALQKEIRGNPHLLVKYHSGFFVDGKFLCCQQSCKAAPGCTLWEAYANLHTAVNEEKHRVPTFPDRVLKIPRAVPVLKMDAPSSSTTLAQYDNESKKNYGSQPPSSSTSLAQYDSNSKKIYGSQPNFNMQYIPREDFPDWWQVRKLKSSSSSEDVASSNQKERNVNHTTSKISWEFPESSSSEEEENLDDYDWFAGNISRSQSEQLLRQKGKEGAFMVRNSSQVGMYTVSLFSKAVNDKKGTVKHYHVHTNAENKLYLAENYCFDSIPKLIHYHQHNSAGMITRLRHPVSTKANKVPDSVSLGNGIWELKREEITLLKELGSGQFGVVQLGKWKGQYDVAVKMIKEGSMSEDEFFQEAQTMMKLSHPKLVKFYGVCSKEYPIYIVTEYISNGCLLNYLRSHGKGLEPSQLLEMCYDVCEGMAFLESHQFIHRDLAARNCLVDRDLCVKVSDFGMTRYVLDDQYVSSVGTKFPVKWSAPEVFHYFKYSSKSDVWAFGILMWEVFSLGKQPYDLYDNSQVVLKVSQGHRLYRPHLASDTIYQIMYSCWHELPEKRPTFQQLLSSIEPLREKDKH

[5] = target: LOK (Homo sapiens, UniProt O94804); settings: read-out: %Inh LOK
Sequence of LOK (O94804 whole entry): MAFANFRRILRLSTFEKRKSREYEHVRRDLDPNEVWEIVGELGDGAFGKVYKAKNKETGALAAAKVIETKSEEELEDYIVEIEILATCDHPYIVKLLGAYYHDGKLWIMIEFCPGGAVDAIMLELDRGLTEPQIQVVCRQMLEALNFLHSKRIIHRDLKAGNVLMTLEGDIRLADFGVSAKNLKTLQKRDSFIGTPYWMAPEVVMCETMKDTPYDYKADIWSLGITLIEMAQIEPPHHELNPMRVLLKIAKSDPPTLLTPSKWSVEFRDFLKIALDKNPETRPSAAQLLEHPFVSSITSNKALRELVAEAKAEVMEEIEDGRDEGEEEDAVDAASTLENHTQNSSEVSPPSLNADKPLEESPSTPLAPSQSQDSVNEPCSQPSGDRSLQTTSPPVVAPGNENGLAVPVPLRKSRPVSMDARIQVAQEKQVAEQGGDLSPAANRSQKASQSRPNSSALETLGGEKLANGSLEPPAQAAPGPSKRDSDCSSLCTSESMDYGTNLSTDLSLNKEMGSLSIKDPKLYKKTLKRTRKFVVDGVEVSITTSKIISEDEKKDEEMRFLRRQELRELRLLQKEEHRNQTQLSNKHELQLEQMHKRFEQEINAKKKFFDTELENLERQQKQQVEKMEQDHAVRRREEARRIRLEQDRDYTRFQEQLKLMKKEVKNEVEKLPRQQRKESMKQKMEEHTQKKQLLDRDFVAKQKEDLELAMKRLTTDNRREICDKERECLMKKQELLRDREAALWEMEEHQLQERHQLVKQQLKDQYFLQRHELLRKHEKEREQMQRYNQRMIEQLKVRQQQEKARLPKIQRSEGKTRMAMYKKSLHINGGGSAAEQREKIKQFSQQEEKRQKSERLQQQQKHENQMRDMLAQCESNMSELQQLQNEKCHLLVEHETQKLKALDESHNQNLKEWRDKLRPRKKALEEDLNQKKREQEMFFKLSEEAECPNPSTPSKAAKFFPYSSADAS

[6] = target: CDK4 (Homo sapiens, UniProt P11802); settings: read-out: %Inh CDK4
Sequence of CDK4 (P11802 whole entry): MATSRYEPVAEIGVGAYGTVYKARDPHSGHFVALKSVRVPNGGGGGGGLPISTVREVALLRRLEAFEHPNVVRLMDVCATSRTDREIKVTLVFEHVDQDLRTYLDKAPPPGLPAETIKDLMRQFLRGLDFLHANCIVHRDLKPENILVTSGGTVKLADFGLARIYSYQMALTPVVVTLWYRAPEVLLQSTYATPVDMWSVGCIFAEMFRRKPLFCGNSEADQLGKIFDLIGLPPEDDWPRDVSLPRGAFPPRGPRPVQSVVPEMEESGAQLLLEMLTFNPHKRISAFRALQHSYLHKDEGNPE

[7] = target: FER (Homo sapiens, UniProt P16591); settings: read-out: %Inh FER
Sequence of FER (P16591 whole entry): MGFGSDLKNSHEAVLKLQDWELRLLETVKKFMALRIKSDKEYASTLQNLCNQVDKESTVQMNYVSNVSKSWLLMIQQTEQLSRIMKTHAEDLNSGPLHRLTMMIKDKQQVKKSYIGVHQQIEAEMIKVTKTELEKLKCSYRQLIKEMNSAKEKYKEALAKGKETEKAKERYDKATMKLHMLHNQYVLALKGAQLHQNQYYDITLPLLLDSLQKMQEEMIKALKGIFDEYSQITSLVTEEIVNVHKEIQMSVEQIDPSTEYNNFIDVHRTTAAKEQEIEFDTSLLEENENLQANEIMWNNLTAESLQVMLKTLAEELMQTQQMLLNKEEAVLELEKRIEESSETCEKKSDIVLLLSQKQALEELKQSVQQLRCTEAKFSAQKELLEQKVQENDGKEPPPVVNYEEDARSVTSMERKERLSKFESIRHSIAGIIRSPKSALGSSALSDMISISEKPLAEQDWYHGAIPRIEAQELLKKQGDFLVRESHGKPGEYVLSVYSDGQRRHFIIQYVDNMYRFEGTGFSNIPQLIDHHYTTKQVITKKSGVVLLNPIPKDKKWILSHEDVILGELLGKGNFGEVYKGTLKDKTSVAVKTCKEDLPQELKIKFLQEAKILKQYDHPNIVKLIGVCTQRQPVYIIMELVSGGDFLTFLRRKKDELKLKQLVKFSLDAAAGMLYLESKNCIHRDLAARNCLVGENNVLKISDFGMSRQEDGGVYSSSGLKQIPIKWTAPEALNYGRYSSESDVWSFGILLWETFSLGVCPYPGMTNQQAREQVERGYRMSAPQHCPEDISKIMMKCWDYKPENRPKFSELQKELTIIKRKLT

[8] = target: FRK (Homo sapiens, UniProt P42685); settings: read-out: %Inh FRK
Sequence of FRK (P42685 whole entry): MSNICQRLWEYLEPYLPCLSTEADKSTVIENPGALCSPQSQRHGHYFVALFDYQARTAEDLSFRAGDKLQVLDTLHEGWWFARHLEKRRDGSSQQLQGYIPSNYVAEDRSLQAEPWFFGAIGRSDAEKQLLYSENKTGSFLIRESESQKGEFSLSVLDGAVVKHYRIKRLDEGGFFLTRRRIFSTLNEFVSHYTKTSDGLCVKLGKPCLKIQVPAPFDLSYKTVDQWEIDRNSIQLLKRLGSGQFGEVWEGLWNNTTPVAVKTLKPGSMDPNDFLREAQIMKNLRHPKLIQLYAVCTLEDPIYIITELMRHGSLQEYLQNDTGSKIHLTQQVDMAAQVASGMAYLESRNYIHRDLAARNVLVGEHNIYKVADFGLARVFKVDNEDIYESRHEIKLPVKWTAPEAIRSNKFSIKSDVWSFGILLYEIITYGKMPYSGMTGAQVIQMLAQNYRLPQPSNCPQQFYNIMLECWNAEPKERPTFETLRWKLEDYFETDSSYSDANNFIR

[9] = target: ADCK3 (Homo sapiens, UniProt Q8NI60); settings: read-out: %Inh ADCK3
Sequence of ADCK3 (Q8NI60 163-647): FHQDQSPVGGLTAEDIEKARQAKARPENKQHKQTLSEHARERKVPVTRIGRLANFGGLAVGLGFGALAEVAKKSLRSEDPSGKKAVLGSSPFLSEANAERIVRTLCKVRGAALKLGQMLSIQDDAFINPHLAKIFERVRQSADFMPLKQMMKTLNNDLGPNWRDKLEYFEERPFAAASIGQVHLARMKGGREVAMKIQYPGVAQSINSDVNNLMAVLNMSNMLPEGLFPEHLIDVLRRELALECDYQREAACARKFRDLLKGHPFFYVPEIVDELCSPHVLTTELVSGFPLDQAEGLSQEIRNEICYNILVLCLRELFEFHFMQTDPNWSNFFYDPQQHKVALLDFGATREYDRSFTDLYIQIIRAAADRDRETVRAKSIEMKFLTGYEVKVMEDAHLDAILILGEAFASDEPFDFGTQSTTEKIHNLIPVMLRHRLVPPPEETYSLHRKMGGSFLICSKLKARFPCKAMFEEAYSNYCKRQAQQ

[10] = target: GRK4 (Homo sapiens, UniProt P32298); settings: read-out: %Inh GRK4
Sequence of GRK4 (P32298 whole entry): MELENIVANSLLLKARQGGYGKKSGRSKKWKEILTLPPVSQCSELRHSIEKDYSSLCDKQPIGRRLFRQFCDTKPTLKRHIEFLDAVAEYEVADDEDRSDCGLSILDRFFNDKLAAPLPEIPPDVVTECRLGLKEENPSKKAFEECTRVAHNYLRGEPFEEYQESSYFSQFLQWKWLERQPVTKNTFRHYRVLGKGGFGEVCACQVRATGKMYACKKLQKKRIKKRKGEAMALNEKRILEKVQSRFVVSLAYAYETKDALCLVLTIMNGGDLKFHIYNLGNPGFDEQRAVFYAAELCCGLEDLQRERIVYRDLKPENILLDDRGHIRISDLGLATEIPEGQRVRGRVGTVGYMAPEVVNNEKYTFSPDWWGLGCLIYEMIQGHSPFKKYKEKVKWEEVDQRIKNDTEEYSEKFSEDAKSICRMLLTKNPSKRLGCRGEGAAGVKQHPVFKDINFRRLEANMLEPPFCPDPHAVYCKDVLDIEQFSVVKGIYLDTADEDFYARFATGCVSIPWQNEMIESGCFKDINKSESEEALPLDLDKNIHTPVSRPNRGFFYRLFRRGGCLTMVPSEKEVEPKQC

Sequence of HPK1 (Q92918 whole entry): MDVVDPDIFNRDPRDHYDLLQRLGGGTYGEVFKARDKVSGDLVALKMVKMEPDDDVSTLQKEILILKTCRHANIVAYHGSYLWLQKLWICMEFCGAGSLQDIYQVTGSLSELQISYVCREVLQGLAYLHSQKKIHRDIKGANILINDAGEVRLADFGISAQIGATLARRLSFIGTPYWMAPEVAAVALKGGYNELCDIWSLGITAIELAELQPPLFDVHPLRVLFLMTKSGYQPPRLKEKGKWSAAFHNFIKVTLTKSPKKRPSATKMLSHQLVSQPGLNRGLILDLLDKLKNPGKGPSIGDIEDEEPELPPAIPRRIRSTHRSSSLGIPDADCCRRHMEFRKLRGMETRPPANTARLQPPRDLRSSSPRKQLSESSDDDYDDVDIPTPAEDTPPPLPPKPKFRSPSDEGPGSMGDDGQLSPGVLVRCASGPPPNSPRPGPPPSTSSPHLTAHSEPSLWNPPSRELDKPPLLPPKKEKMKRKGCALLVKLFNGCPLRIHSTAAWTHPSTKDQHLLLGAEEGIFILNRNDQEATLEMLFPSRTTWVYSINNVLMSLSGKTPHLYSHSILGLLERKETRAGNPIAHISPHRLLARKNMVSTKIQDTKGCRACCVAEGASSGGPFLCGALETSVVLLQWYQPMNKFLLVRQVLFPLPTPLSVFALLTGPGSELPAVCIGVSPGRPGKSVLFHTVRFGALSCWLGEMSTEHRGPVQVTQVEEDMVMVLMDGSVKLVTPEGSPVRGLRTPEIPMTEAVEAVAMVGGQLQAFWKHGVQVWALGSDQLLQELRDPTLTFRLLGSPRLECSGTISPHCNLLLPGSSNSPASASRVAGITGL

Row | SMILES | inhibition at 1 µM [1] [%] | inhibition at 1 µM [2] [%] | inhibition at 1 µM [3] [%] | inhibition at 1 µM [4] [%] | inhibition at 1 µM [5] [%] | inhibition at 1 µM [6] [%] | inhibition at 1 µM [7] [%] | inhibition at 1 µM [8] [%] | inhibition at 1 µM [9] [%] | inhibition at 1 µM [10] [%]
1 | COc1cccc(OC)c1C(=O)Nc1cccc(-c2nn3ccccc3c2-c2ccnc(Nc3cccc(F)c3)n2)c1 [UNC10225310A] | 2 | 16 | 10 | 21 | 90 | 0 | 24 | 16 | 0 | 0
2 | Cc1ccc(NC(=O)Nc2cccc(C(F)(F)F)c2)cc1 [UNC10225187A] | 0 | 13 | 20 | 0 | 0 | 0 | 0 | 0 | 5 | 0
3 | O=c1cc(N2CCOCC2)nc2n(Cc3cccc(Cl)c3Cl)c(C3CC3)nn12 [UNC10225469A] | 14 | 17 | 27 | 19 | 0 | 0 | 3 | 0 | 11 | 0
4 | CS(=O)(=O)Cc1ccc(Nc2nccc(-c3c(-c4cccc(NC(=O)C5CCCCC5)c4)nn4ncccc34)n2)cc1 [UNC10225159A] | 14 | 0 | 48 | 37 | 81 | 18 | 8 | 4 | 24 | 0
5 | Cn1cc(-c2cnc(N)c3c(-c4ccc5c(c4)CCN5C(=O)Cc4ccccc4)csc23)cn1 [UNC10225012A] | 94 | 5 | 23 | 57 | 98.9 | 0 | 10 | 38 | 7 | 7
